According to patent US7618984B2, “Sulfonamide compound” (Asahi Kasei Pharma Corporation, priority 2005, dated 2009):

Legend:
[1] = system: phosphorylation of myosin regulatory light chain; assay: Inhibitory action on phosphorylation of myosin regulatory light chain (Test Example 1); type: cell-based; details: Neutrophil, 5 min; human peripheral blood neutrophils, 25° C. for 5 minutes; read-out: IC50, compound concentration providing a phosphorylation inhibition ratio of 50% (myosin regulatory light chain)
Protocol: A volume of 50 to 100 ml of peripheral blood collected from healthy volunteers was centrifuged by using Mono-Poly separator solution (Dainippon Pharmaceutical) to prepare a neutrophil containing fraction. The neutrophils were washed with PBS(−) and resuspended in Hanks' Balanced Salt Solution (HBSS+, Gibco) to prepare a cell suspension (8×10^6/ml). The cell suspension was diluted to 5×10^6/ml, introduced into Eppendorf tubes in a volume of 0.4 ml each, then 0.1 ml each of solutions of a test compound at various concentrations were added to the suspension and allowed to react at 25° C. for 5 minutes. After the reaction, 0.1 ml of trichloroacetic acid solution was added to each reaction mixture, the reaction mixture was gently shaken and centrifuged at 12,000 rpm (4° C., 5 minutes), and the supernatant was removed. Subsequently, 3 μl of 1 M Tris solution was added to the residue, the mixture was further mixed with 50 μl of extraction buffer (8 M urea, 0.02% 2-mercaptoethanol, 0.002% bromophenol blue) and left stand at room temperature for 1 hour. Then, the reaction mixture was loaded on a spin column (0.45 μm, Millipore) to remove the insoluble solids and a sample buffer for SDS polyacrylamide gel electrophoresis (25 mM, Tris-HCl pH 6.8, 2.5% 2-mercaptoethanol, 2% sodium dodecylsulfate, 5% sucrose, 0.002% bromophenol blue as final concentrations) was added, and 10 μl of each sample was subjected to electrophoresis.
The gel after the electrophoresis was blotted on a nitrocellulose membrane (BioRad), blocked with 5% skim milk, and reacted successively with antibodies pLC1 (Sakurada K. et al, Am. J. Physiol., 274, C1563-C1572 (1998)), which specifically recognize the phosphorylated myosin regulatory light chain, and donkey anti-mouse IgG (Chemicon) conjugated with horseradish peroxidase. The band of the phosphorylated myosin regulatory light chain was detected on a film by using ECL Plus Kit (Amersham Pharmacia Biotech). This band was subjected to quantification using a densitometer. By using this value, the inhibitory ratio (%) for phosphorylation of the myosin regulatory light chain was calculated by using the following equation. Phosphorylation inhibition ratio(%)=1−(Band intensity of phosphorylated myosin regulatory light chain with addition of the test compound/Band intensity of phosphorylated myosin regulatory light chain without addition of the test compound)×100
Further, the phosphorylation inhibition ratio was calculated with changing the concentrations of the test compound, and a compound concentration providing an inhibition ratio of 50% was obtained as IC50.

[2] = system: rabbit normal intraocular pressure; assay: Intraocular pressure reducing action (Test Example 2); type: in vivo, Japanese white rabbit; details: Oryctolagus cuniculus, topical; 3 mM aqueous solution, 50 μl to the left eye; measured after 2, 4 and 6 hours; read-out: intraocular pressure reducing degree (max ΔIOP / intraocular pressure value immediately before administration × 100)
Protocol: A Japanese white rabbit having a body weight of about 2 kg was placed in a positioner and naturalized for one week before the experiment. An opthalmologic local anesthesant (Benoxil) was administered to both eyes, and then intraocular pressure was measured by using a tonometer (Classic 30, Solan). A 3 mM aqueous solution of a test compound was administered in a volume of 50 μl to the left eye, and the right eye was not treated (control eye). The intraocular pressure values were measured for the left and right eyes immediately before, and 2, 4 and 6 hours after the administration of the aqueous solution of the test compound, and the difference of the measured values for the left and right eyes was considered an intraocular pressure reduction value of the test medicament at each measurement time. The largest difference of the values for the left and right eyes among the measured values at the measurement times (after 2, 4 and 6 hours) was considered the maximum intraocular pressure reduction value (max ΔIOP) of each test medicament. The intraocular pressure reducing degree representing the intraocular pressure reducing action of each test medicament was calculated according to the following formula. Since rabbits show significant daily variation of intraocular pressure, daily variation is added when change of intraocular pressure is measured over time, and the intraocular pressure reducing action may be overestimated. Therefore, we used this calculation method of intraocular pressure reduction value in order to minimize the influence of the variation. Intraocular pressure reducing degree (%)=(max ΔIOP/Intraocular pressure value immediately before administration)×100

[3] = system: neutrophils; assay: Neutrophil migration inhibitory action, Boyden Chamber, FMLP (Test Example 3); type: cell-based; details: 0.5 h, human neutrophils, FMLP 1 μM, 37° C., 30 minutes, read-out: IC50, compound concentration providing a migration inhibition ratio of 50%
Protocol: Neutrophils were isolated from 50 to 100 ml of peripheral blood collected from healthy human donors by the method described in Test Example 1 to obtain a cell suspension (8×10^6/ml). Subsequently, solutions of a test compound at various concentrations were introduced into wells of a 96-well plate in a volume of 125 μl per well, the cell suspension of an equivalent volume was added to it and the plate was preincubated at room temperature for 5 minutes. During the preincubation, FMLP (1 μM, Sigma) solution was added to the lower chamber to set Boyden Chamber, the preincubated cell suspension was added to the upper chamber in a volume of 200 μl per well, and the cells were allowed to migrate at 37° C. under 5% carbon dioxide for 30 minutes. The filter after the migration was collected, and the non-migrated cells adhered to the surface that faced the upper chamber were carefully wiped off. Then, the migrated cells on the back surface were stained with DifQuick dye solution (International Reagents), washed with water and dried, and then absorbance was measured at 595 nm. The inhibition ratio against migration (%) of a test compound was calculated by using the following equation: Migration inhibition ratio(%)=(1−Absorbance of the group with addition of test compound/Absorbance of the group without addition of test compound)×100
Further, the migration inhibitory ratio was calculated with changing the test compound concentration, and a compound concentration providing an inhibition ratio of 50% was obtained as IC50.

## N[C@@H]1CCCN(S(=O)(=O)c2cccc3cncc(Cl)c23)C1 [Example 21-2, (R)-3-Amino-1-(4-chloro-5-isoquinolinesulfonyl)piperidine]
[1]
  IC50: 10 to 40 µM
[2]
  inhibition in vivo at 3000 µM: 10 to 20%

## N[C@H]1CCN(S(=O)(=O)c2cccc3c(O)ncc(Cl)c23)C1 [Example 30-1, (S)-3-Amino-1-(1-hydroxy-4-chloro-5-isoquinolinesulfonyl)pyrrolidine]
[2]
  inhibition in vivo at 3000 µM: ≥ 20%

## CN[C@H]1CCN(S(=O)(=O)c2cccc3c(O)ncc(Br)c23)C1 [Example 35-1, (S)-1-(1-Hydroxy-4-bromo-5-isoquinolinesulfonyl)-3-(methylamino)pyrrolidine]
[2]
  inhibition in vivo at 3000 µM: 5 to 10%

## O=S(=O)(c1cccc2cncc(Br)c12)N1CC[C@H](NCc2ccco2)C1 [Example 4-1, (S)-3-(2-Furylmethyl)amino-1-(4-bromo-5-isoquinolinesulfonyl)pyrrolidine]
[1]
  IC50: < 10 µM
[2]
  inhibition in vivo at 3000 µM: ≥ 20%
[3]
  IC50: < 10 µM

## C=Cc1cncc2cccc(S(=O)(=O)N3CC[C@H](N)C3)c12 [Example 9-1, (S)-3-Amino-1-(4-vinyl-5-isoquinolinesulfonyl)pyrrolidine]
[1]
  IC50: < 10 µM
[2]
  inhibition in vivo at 3000 µM: ≥ 20%
[3]
  IC50: 10 to 40 µM

## Nc1cncc2cccc(S(=O)(=O)N3CC[C@H](N)C3)c12 [Example 12-1, (S)-3-Amino-1-(4-amino-5-isoquinolinesulfonyl)pyrrolidine]
[1]
  IC50: 10 to 40 µM
[2]
  inhibition in vivo at 3000 µM: 10 to 20%

## N[C@H]1CCN(S(=O)(=O)c2cccc3cncc(Br)c23)C1 [Example 1-1, (S)-3-Amino-1-(4-bromo-5-isoquinolinesulfonyl)pyrrolidine]
[1]
  IC50: < 10 µM
[2]
  inhibition in vivo at 3000 µM: ≥ 20%
[3]
  IC50: 10 to 40 µM

## N[C@H]1CCN(S(=O)(=O)c2cccc3cncc(F)c23)C1 [Example 18-1, (S)-3-Amino-1-(4-fluoro-5-isoquinolinesulfonyl)pyrrolidine]
[1]
  IC50: 10 to 40 µM
[2]
  inhibition in vivo at 3000 µM: ≥ 20%

## CN[C@@H]1CCN(S(=O)(=O)c2cccc3c(O)ncc(Cl)c23)C1 [Example 36-2, (R)-1-(1-Hydroxy-4-chloro-5-isoquinolinesulfonyl)-3-(methylamino)pyrrolidine]
[2]
  inhibition in vivo at 3000 µM: 10 to 20%

## N[C@@H]1CCN(S(=O)(=O)c2cccc3cncc(Cl)c23)C1 [Example 19-2, (R)-3-Amino-1-(4-chloro-5-isoquinolinesulfonyl)pyrrolidine]
[1]
  IC50: < 10 µM
[2]
  inhibition in vivo at 3000 µM: ≥ 20%
[3]
  IC50: 10 to 40 µM

## N[C@H]1CCN(S(=O)(=O)c2cccc3c(O)ncc(Br)c23)C1 [Example 7-1, (S)-3-Amino-1-(1-hydroxy-4-bromo-5-isoquinolinesulfonyl)pyrrolidine]
[1]
  IC50: < 10 µM
[2]
  inhibition in vivo at 3000 µM: ≥ 20%
[3]
  IC50: < 10 µM

## Cc1cncc2cccc(S(=O)(=O)N3CCC[C@@H](N)C3)c12 [Example 22-2, (R)-3-Amino-1-(4-methyl-5-isoquinolinesulfonyl)piperidine]
[1]
  IC50: < 10 µM
[2]
  inhibition in vivo at 3000 µM: 10 to 20%
[3]
  IC50: 10 to 40 µM

## Cc1cncc2cccc(S(=O)(=O)N3CC(N)C3)c12 [Example 26, 3-Amino-1-(4-methyl-5-isoquinolinesulfonyl)azetidine]
[1]
  IC50: < 10 µM
[2]
  inhibition in vivo at 3000 µM: 5 to 10%
[3]
  IC50: 10 to 40 µM

## N[C@@H]1CCN(S(=O)(=O)c2cccc3cncc(Br)c23)C1 [Example 1-2, (R)-3-Amino-1-(4-bromo-5-isoquinolinesulfonyl)pyrrolidine]
[1]
  IC50: < 10 µM
[2]
  inhibition in vivo at 3000 µM: ≥ 20%
[3]
  IC50: 10 to 40 µM

## Nc1ncc(Cl)c2c(S(=O)(=O)N3CC[C@H](N)C3)cccc12 [Example 39-1, (S)-3-Amino-1-(1-amino-4-chloro-5-isoquinolinesulfonyl)pyrrolidine]
[2]
  inhibition in vivo at 3000 µM: 10 to 20%

## CN[C@@H]1CCN(S(=O)(=O)c2cccc3cncc(C)c23)C1 [Example 27, (R)-3-(Methylamino)-1-(4-methyl-5-isoquinolinesulfonyl)pyrrolidine]
[1]
  IC50: < 10 µM
[2]
  inhibition in vivo at 3000 µM: 5 to 10%
[3]
  IC50: 10 to 40 µM

## CN[C@H]1CCN(S(=O)(=O)c2cccc3c(O)ncc(Cl)c23)C1 [Example 36-1, (S)-1-(1-Hydroxy-4-chloro-5-isoquinolinesulfonyl)-3-(methylamino)pyrrolidine]
[1]
  IC50: < 10 µM
[2]
  inhibition in vivo at 3000 µM: 10 to 20%
[3]
  IC50: < 10 µM

## Cc1cncc2cccc(S(=O)(=O)N3CC[C@H](N)C3)c12 [Example 8-1, (S)-3-Amino-1-(4-methyl-5-isoquinolinesulfonyl)pyrrolidine]
[1]
  IC50: < 10 µM
[2]
  inhibition in vivo at 3000 µM: ≥ 20%
[3]
  IC50: < 10 µM

## N[C@H]1CCCN(S(=O)(=O)c2cccc3cncc(Cl)c23)C1 [Example 21-1, (S)-3-Amino-1-(4-chloro-5-isoquinolinesulfonyl)piperidine]
[1]
  IC50: 10 to 40 µM
[2]
  inhibition in vivo at 3000 µM: ≥ 20%

## N#Cc1cncc2cccc(S(=O)(=O)N3CC[C@H](N)C3)c12 [Example 13-1, (S)-3-Amino-1-(4-cyano-5-isoquinolinesulfonyl)pyrrolidine]
[2]
  inhibition in vivo at 3000 µM: 5 to 10%

## CN[C@H]1CCN(S(=O)(=O)c2cccc3c(N)ncc(Cl)c23)C1 [Example 40-1, (S)-1-(1-Amino-4-chloro-5-isoquinolinesulfonyl)-3-(methylamino)pyrrolidine]
[2]
  inhibition in vivo at 3000 µM: 5 to 10%

## CN[C@H]1CCN(S(=O)(=O)c2cccc3c(N)ncc(Br)c23)C1 [Example 42-1, (S)-1-(1-Amino-4-bromo-5-isoquinolinesulfonyl)-3-(methylamino)pyrrolidine]
[2]
  inhibition in vivo at 3000 µM: 5 to 10%

## O=S(=O)(c1cccc2c(O)ncc(Br)c12)N1CC[C@H](NCc2ccco2)C1 [Example 38-1, (S)-1-(1-Hydroxy-4-bromo-5-isoquinolinesulfonyl)-3-(2-furylmethylamino)pyrrolidine]
[2]
  inhibition in vivo at 3000 µM: 5 to 10%

## COc1cncc2cccc(S(=O)(=O)N3CC[C@H](N)C3)c12 [Example 15-1, (S)-3-Amino-1-(4-methoxy-5-isoquinolinesulfonyl)pyrrolidine]
[1]
  IC50: 10 to 40 µM
[2]
  inhibition in vivo at 3000 µM: 5 to 10%

## N[C@H]1CCN(S(=O)(=O)c2cccc3c(O)ncc(F)c23)C1 [Example 29-1, (S)-3-Amino-1-(1-hydroxy-4-fluoro-5-isoquinolinesulfonyl)pyrrolidine]
[2]
  inhibition in vivo at 3000 µM: 10 to 20%

## N[C@H]1CCN(S(=O)(=O)c2cccc3cncc(-c4cnoc4)c23)C1 [Example 24-1, (S)-3-Amino-1-[4-(4-isoxazolyl)-5-isoquinolinesulfonyl]pyrrolidine]
[2]
  inhibition in vivo at 3000 µM: 5 to 10%
